{"source": "patent US9012411B2", "about": "“Formulations from derivatives of curcumin, paclitaxel, and aspirin” (Organomed Corporation, priority 2009, dated 2015)", "key": {"[1]": {"tested_on": "carrageenan induced rat paw edema", "test": "Carrageenan induced rat paw edema", "format": "in vivo, albino rats", "conditions": "for Paw circumference: Example 8 (in vivo), 100 mg/kg oral with food; for Percent inhibition of paw edema (Std. Error): Example 9, 100 mg/kg oral with food", "protocol": "Animals were kept under 13 hour day night cycle. Animals were given standard diet and water was provided ad, libitum. All animals were acclimatized for at least one week before the experimental session. Animals were divided in to five groups. Each group consisted of 8 animals.\nPedal inflammation in albino rats of either sex was produced according to the method of Winter et al., (Proc Soc Exp Biol Med 1963; 111: 544-7). An injection was made with 0.1 ml of 1% carrageenan (SIGMA) suspension into the right hind foot of each rat in the plantar region. […] Control group 5 was given 0.5 ml saline and groups 1 and 2 received aspirin. Increase in linear paw circumference was measured by tying a piece of cotton thread round the rat's paw, and noting the point of intersection of two ends on a meter scale. This was taken as an index of increase in paw volume, which is a measure of oedema (Bamgbose S O A, Noamesi B K. Planta Med 1981; 42: 392-6). Measurements were taken immediately before and at 1, 2 and 3 hours after carrageenan injection. The inhibitory activity was calculated according to the following formula (Awe S O, Olajide O A, Adeboye J O, Makinde J M. Indian J Pharmacol 1998; 30: 38-42):\n[formula] Ct-Linear paw circumference 3 hours after carrageenan injection and Co-Linear paw circumference before carrageenan injection.\nAlbino rats obtained from central animal house of institute were used in the study. The animals were kept under 12 hour day night cycle. Animals were given standard diet and water was provided ad libitum. All animals were acclimatized for at least one week before the experimental session. Animals were divided into twelve groups in the carrageenan induced paw edema and tail flick method. Each group consisted of 4 animal each.\nAnimals were divided into eight groups in the carrageenan induced paw edema and tail flick method. Each group consisted of 6 animal each. The groups received various chemicals as given in Table 16 by oral administration with food. The following methods were used to evaluate the activity of the compositions:\nPedal inflammation in albino rats of either sex was produced according to the method of Winter et al. (Proc. Soc. Exp. Biol. Med., 1963, 111: 544-547). An injection was made with 0.1 ml of 1% carrageenan (SIGMA) suspension into the right hind foot of each rat in the plantar region. The various chemicals were given 30 minutes before carrageenan injection. Increase in linear paw circumference was measured by tying a piece of cotton thread round the rat's paw, and noting the point of intersection of two ends on a meter scale. This was taken as an index of increase in paw volume, which is a measure of edema (Bamgbose, S. O. A. & Noamesi, B. K., Planta. Med., 1981, 42: 392-396). Measurements were taken immediately before and at 1, 2 and 3 hours after carrageenan injection. The inhibitory activity was calculated according to the following formula (Awe S O, Olajide O A, Adeboye J O, Makinde J M. Indian J. Pharmacol., 1998; 30: 38-42):\nAnimals were divided into six groups in the carrageenan induced paw edema and tail flick method. Each group consisted of 8 animals each. Carrageenan-induced rat paw edema and Tail flick test were performed as discussed above in Example 8. Data were analyzed using analysis of variance (ANOVA) with Posthoc Bonferroni multi-comparisons. P<0.05 was considered as statistically significant."}, "[2]": {"tested_on": "tail flick latency in rats", "test": "Tail flick test (analgesic activity)", "format": "in vivo, albino rats", "protocol": "Rats were screened for tail flip reaction with a cut-off time of 5 seconds. For each animal, the tail flick latency was obtained thrice before drug administration and mean was used as pre-drug latency. The tail flick latencies were measured at 0, 0.5, 1, 1.5, 2 and 3 h after administration chemicals.\nAlbino rats obtained from central animal house of institute were used in the study. The animals were kept under 12 hour day night cycle. Animals were given standard diet and water was provided ad libitum. All animals were acclimatized for at least one week before the experimental session. […] Each group consisted of 4 animal each.\nRats were screened for tail flip reaction with a cut-off time of 5 seconds. For each animal, the tail flick latency was obtained thrice before drug administration and mean was used as pre-drug latency. The tail flick latencies were measured at 0, 0.5, 1, 1.5, 2 and 3 h after administration of chemicals.\nEach group consisted of 8 animals each. […] Data were analyzed using analysis of variance (ANOVA) with Posthoc Bonferroni multi-comparisons. P<0.05 was considered as statistically significant."}, "[3]": {"tested_on": "normal (non-cancer) cell line WI-38", "test": "Cellular inhibition, Alamar Blue", "format": "cell-based", "method": "(§1) Assays were performed with 3 cancer cell lines: breast (SKBR3), pancreatic (Panc1), prostate (PC-3) and 1 normal (nor-cancer) cell line (WI-38). Compounds were delivered to the cells after dissolving in DMSO. Five dilutions per compound were tested on a total of 4 cell lines in 96 well plates. Cellular inhibition was measured using Alamar Blue. After addition of compound a 24 hour and 48 hour time point using fluorescent plate reader was taken. Data from plate reader was analyzed in the following way: % inhibition bar graphs, % inhibition line graphs and IC50 growth inhibition values. In Tables 7-14, IC50 units are Molar (M)."}, "[4]": {"tested_on": "prostate (PC-3) cancer cell line", "test": "Cellular inhibition, Alamar Blue", "format": "cell-based", "method": "as §1"}, "[5]": {"tested_on": "pancreatic (Panc1) cancer cell line", "test": "Cellular inhibition, Alamar Blue", "format": "cell-based", "method": "as §1"}, "[6]": {"tested_on": "breast (SKBR3) cancer cell line", "test": "Cellular inhibition, Alamar Blue", "format": "cell-based", "method": "as §1"}, "[7]": {"conditions": "Example 9, 100 mg/kg oral with food, 30 min"}, "[8]": {"conditions": "Example 9, 100 mg/kg oral with food, 60 min"}, "[9]": {"conditions": "Example 9, 100 mg/kg oral with food, 90 min"}, "[10]": {"conditions": "Example 9, 100 mg/kg oral with food, 120 min"}, "[11]": {"conditions": "Example 9, 100 mg/kg oral with food, 180 min"}, "[12]": {"conditions": "Example 9, 100 mg/kg oral with food, column headed min"}}, "note": "Entries after “also recorded” stand apart in the source; their conditions may differ. Marks after values point to notes of the source that are not given here."}
{"compound": "COc1cc(/C=C/C(=O)CC(=O)/C=C/c2ccc(O)c(OC)c2)ccc1O", "note": "[Curcumin]", "values": [{"measurement": "Paw circumference", "setting": "[1]; 0 h", "value": 3.2, "unit": "mm"}, {"measurement": "Paw circumference", "setting": "[1]; 1 h", "value": 3.68, "unit": "mm"}, {"measurement": "Paw circumference", "setting": "[1]; 2 h", "value": 3.45, "unit": "mm"}, {"measurement": "Paw circumference", "setting": "[1]; 3 h", "value": 3.53, "unit": "mm"}, {"measurement": "Tail flick latency time", "setting": "[2]; Example 8 (in vivo), 100 mg/kg oral with food, 0 min", "value": 2.67, "unit": "s"}, {"measurement": "Tail flick latency time", "setting": "[2]; Example 8 (in vivo), 100 mg/kg oral with food, 30 min", "value": 2.58, "unit": "s"}, {"measurement": "Tail flick latency time", "setting": "[2]; Example 8 (in vivo), 100 mg/kg oral with food, 60 min", "value": "2.8* seconds"}, {"measurement": "Tail flick latency time", "setting": "[2]; Example 8 (in vivo), 100 mg/kg oral with food, 90 min", "value": "3.18* seconds"}, {"measurement": "Tail flick latency time", "setting": "[2]; Example 8 (in vivo), 100 mg/kg oral with food, 120 min", "value": 3.03, "unit": "s"}, {"measurement": "Tail flick latency time", "setting": "[2]; Example 8 (in vivo), 100 mg/kg oral with food, 180 min", "value": 2.68, "unit": "s"}, {"measurement": "Tail flick / analgesic activity (in words)", "setting": "[2]; Example 8 (in vivo), oral, 100 mg/kg total (combinations 50 mg/kg each)", "value": "stronger activity at 60 and 90 minutes"}, {"measurement": "inhibition of normal lung cells (WI-38)", "setting": "[3]; 24 hours, 100, 150 and 300 uM", "value": "over 20%"}, {"measurement": "IC50", "setting": "[3]; Homo sapiens, WI-38, WI38, 24 hours", "value": 1000, "unit": "µM"}, {"measurement": "IC50", "setting": "[3]; Homo sapiens, WI-38, WI38, 48 hours", "value": 89.9, "unit": "µM"}, {"measurement": "IC50", "setting": "[4]; PC3, 24 hours", "value": 29.5, "unit": "µM"}, {"measurement": "IC50", "setting": "[4]; PC3, 48 hours", "value": 24.2, "unit": "µM"}, {"measurement": "IC50", "setting": "[5]; Homo sapiens, PANC-1, PANC1, 24 hours", "value": 41.5, "unit": "µM"}, {"measurement": "IC50", "setting": "[5]; Homo sapiens, PANC-1, PANC1, 48 hours", "value": 38.2, "unit": "µM"}, {"measurement": "IC50", "setting": "[6]; Homo sapiens, SK-BR-3, SKBR3, 24 hours", "value": 84.1, "unit": "µM"}, {"measurement": "IC50", "setting": "[6]; Homo sapiens, SK-BR-3, SKBR3, 48 hours", "value": 99.4, "unit": "µM"}]}
{"compound": "Curcumin diglutarate [NJ-104-5]", "values": [{"measurement": "Percent inhibition of paw edema (Std. Error)", "setting": "[1]; 1 hr", "value": "49.26 (3.94) %"}, {"measurement": "Percent inhibition of paw edema (Std. Error)", "setting": "[1]; 2 hr", "value": "37.50 (5.11) %"}, {"measurement": "Percent inhibition of paw edema (Std. Error)", "setting": "[1]; 3 hr", "value": "20.05 (8.34) %"}, {"measurement": "Analgesic activity, tail flick (in words)", "setting": "[2]; Example 9, 100 mg/kg oral", "value": "strong activity at 90 and 180 minutes; also recorded: strong analgesic activity"}, {"measurement": "Tail flick latency time", "setting": "[2]; [7]", "value": 3.5625, "unit": "s"}, {"measurement": "Tail flick latency time", "setting": "[2]; [8]", "value": 3.6125, "unit": "s"}, {"measurement": "Tail flick latency time", "setting": "[2]; [9]", "value": 3.7375, "unit": "s"}, {"measurement": "Tail flick latency time", "setting": "[2]; [10]", "value": 3.05, "unit": "s"}, {"measurement": "Tail flick latency time", "setting": "[2]; [11]", "value": 3.5625, "unit": "s"}, {"measurement": "Tail flick latency time", "setting": "[2]; [12]", "value": 3.05, "unit": "s"}]}
{"compound": "curcumin-glutarate [MT-76-1]", "values": [{"measurement": "IC50", "setting": "[3]; WI38, 24 hours", "value": 298, "unit": "µM"}, {"measurement": "IC50", "setting": "[3]; WI38, 48 hours", "value": 166, "unit": "µM"}, {"measurement": "IC50", "setting": "[4]; PC3, 24 hours", "value": 127, "unit": "µM"}, {"measurement": "IC50", "setting": "[4]; PC3, 48 hours", "value": 71.6, "unit": "µM"}, {"measurement": "IC50", "setting": "[5]; PANC1, 24 hours", "value": 35.4, "unit": "µM"}, {"measurement": "IC50", "setting": "[5]; PANC1, 48 hours", "value": 123, "unit": "µM"}, {"measurement": "IC50", "setting": "[6]; SKBR3, 24 hours", "value": 169, "unit": "µM"}, {"measurement": "IC50", "setting": "[6]; SKBR3, 48 hours", "value": 118, "unit": "µM"}]}
{"compound": "diacetylcurcumin [NJ-58-1]", "values": [{"measurement": "Anti-inflammatory activity, paw edema (in words)", "setting": "[1]; Example 9, 100 mg/kg oral", "value": "strong"}, {"measurement": "Percent inhibition of paw edema (Std. Error)", "setting": "[1]; 1 hr, listed as Curcumin diacetate", "value": 76, "unit": "%"}, {"measurement": "Percent inhibition of paw edema (Std. Error)", "setting": "[1]; 1 hr, listed as NJ-104-4", "value": "76.49 (8.35) %"}, {"measurement": "Percent inhibition of paw edema (Std. Error)", "setting": "[1]; 2 hr, listed as Curcumin diacetate", "value": 80, "unit": "%"}, {"measurement": "Percent inhibition of paw edema (Std. Error)", "setting": "[1]; 2 hr, listed as NJ-104-4", "value": "80.56 (5.84) %"}, {"measurement": "Percent inhibition of paw edema (Std. Error)", "setting": "[1]; 3 hr, listed as Curcumin diacetate", "value": 76, "unit": "%"}, {"measurement": "Percent inhibition of paw edema (Std. Error)", "setting": "[1]; 3 hr, listed as NJ-104-4", "value": "76.74 (8.22) %"}, {"measurement": "Tail flick latency time", "setting": "[2]; [7]", "value": 3.675, "unit": "s"}, {"measurement": "Tail flick latency time", "setting": "[2]; [8]", "value": 3.6125, "unit": "s"}, {"measurement": "Tail flick latency time", "setting": "[2]; [9]", "value": 3.6375, "unit": "s"}, {"measurement": "Tail flick latency time", "setting": "[2]; [10]", "value": 3.4375, "unit": "s"}, {"measurement": "Tail flick latency time", "setting": "[2]; [11]", "value": 3.675, "unit": "s"}, {"measurement": "Tail flick latency time", "setting": "[2]; [12]", "value": 3.4375, "unit": "s"}, {"measurement": "inhibition of normal lung cells (WI-38)", "setting": "[3]; 24 hours", "value": "less than 10%"}, {"measurement": "IC50", "setting": "[3]; WI38, 24 hours", "value": 4390, "unit": "µM"}, {"measurement": "IC50", "setting": "[3]; WI38, 48 hours", "value": 155, "unit": "µM"}, {"measurement": "IC50", "setting": "[4]; PC3, 24 hours", "value": 96.1, "unit": "µM"}, {"measurement": "IC50", "setting": "[4]; PC3, 48 hours", "value": 67, "unit": "µM"}, {"measurement": "IC50", "setting": "[5]; PANC1, 24 hours", "value": 268, "unit": "µM"}, {"measurement": "IC50", "setting": "[5]; PANC1, 48 hours", "value": 133, "unit": "µM"}, {"measurement": "IC50", "setting": "[6]; SKBR3, 24 hours", "value": 171, "unit": "µM"}, {"measurement": "IC50", "setting": "[6]; SKBR3, 48 hours", "value": 125, "unit": "µM"}]}
